Columns and labels:
[1] = Heavy metal removal ability test in contaminated soil (ICP-MS), arsenic; conditions: for Arsenic (As) Adsorption amount: contaminated soil; for Arsenic (As) Adsorption rate: relative to EDTA control
Procedure, shortened: (§1)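 Sieved soil spiked with aqueous heavy metal, mixed 5 min with 3 ml of test solution, then extracted with 50 ml distilled water (20 min stirring, 1 h settling). Supernatant metal measured by ICP-MS; adsorption rate (%) expressed relative to control.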

[2] = Heavy metal removal ability test in contaminated soil (ICP-MS), cadmium; conditions: for Cadmium (Cd) Adsorption amount: contaminated soil; for Cadmium (Cd) Adsorption rate: relative to EDTA control
Procedure, shortened: as §1

[3] = Heavy metal removal ability test in contaminated soil (ICP-MS), nickel; conditions: for Nickel (Ni) Adsorption amount: contaminated soil; for Nickel (Ni) Adsorption rate: relative to EDTA control
Procedure, shortened: as §1

human skin = assay: Skin irritation test of active ingredient (patch method, CTFA guidelines); assay type: in vivo; conditions: 24 h patch; for Test result (number of subject) (+) / Test result (number of subject) (++) / Test result (number of subject) (±) / Test result (number of subject) (−): 20 people; for Test result (number of subject) (+): (+) apparent reddening; for Test result (number of subject) (++): (++) more reddened and swollen; for Test result (number of subject) (±): (±) slightly reddish; for Test result (number of subject) (−): (−) no erythema
[4] = Formaldehyde (formalin) removing ability test (GC); conditions: 2.0% formaldehyde solution, 3 molar equivalents of compound, room temperature; for Formaldehyde GC Area, 30 min: after 30 min; for Formaldehyde GC Area, 180 min: after 180 min; for Formaldehyde GC Area, Initial: initial state
[5] = Heavy metal removal ability test in contaminated soil around a factory (WAK-Me test kit); conditions: 1.0 wt % aqueous solution, colour comparison test kit
Protocol: The contaminated soil around the factory in the industrial complex was collected, pulverized, and meshed to prepare fine particles of soil samples.
Each 3 ml of aqueous solutions for restoring soil was added to soil samples and mixed for 5 minutes.

SMILES | Arsenic (As) Adsorption amount ([1]; content 0.5% aqueous solution) [ppm] | Arsenic (As) Adsorption rate ([1]; content 0.5%) [%] | Arsenic (As) Adsorption amount ([1]; content 1.0% aqueous solution) [ppm] | Arsenic (As) Adsorption rate ([1]; content 1.0%) [%] | Arsenic (As) Adsorption amount ([1]; content 2.0% aqueous solution) [ppm] | Arsenic (As) Adsorption rate ([1]; content 2.0%) [%] | Cadmium (Cd) Adsorption amount ([2]; content 0.5% aqueous solution) [ppm] | Cadmium (Cd) Adsorption rate ([2]; content 0.5%) [%] | Cadmium (Cd) Adsorption amount ([2]; content 1.0% aqueous solution) [ppm] | Cadmium (Cd) Adsorption rate ([2]; content 1.0%) [%] | Cadmium (Cd) Adsorption amount ([2]; content 2.0% aqueous solution) [ppm] | Cadmium (Cd) Adsorption rate ([2]; content 2.0%) [%] | Nickel (Ni) Adsorption amount ([3]; content 0.5% aqueous solution) [ppm] | Nickel (Ni) Adsorption rate ([3]; content 0.5%) [%] | Nickel (Ni) Adsorption amount ([3]; content 1.0% aqueous solution) [ppm] | Nickel (Ni) Adsorption rate ([3]; content 1.0%) [%] | Nickel (Ni) Adsorption amount ([3]; content 2.0% aqueous solution) [ppm] | Nickel (Ni) Adsorption rate ([3]; content 2.0%) [%] | Test result (number of subject) (+) (human skin; content 0.1 wt %) | Test result (number of subject) (++) (human skin; content 0.1 wt %) | also measured
O=C(O)c1cncc(N2CCCN(c3cncc(C(=O)O)c3)CCN(c3cncc(C(=O)O)c3)CCCN(c3cncc(C(=O)O)c3)CC2)c1 [Embodiment 11, 5,5′,5″,5′″-(1,4,8,11-tetraazacyclotetradecane-1,4,8,11-tetrayl)tetranicotinic Acid] | 38 | 152 | 41 | 164 | 47 | 188 | 59 | 144 | 66 | 161 | 70 | 171 | 79 | 161 | 88 | 180 | 93 | 190 | 0 | 0 | Test result (number of subject) (±) (human skin; content 0.1 wt %): 0; Test result (number of subject) (−) (human skin; content 0.1 wt %): 20; Degree of irritation (human skin; content 0.1 wt %): 0; Grade for skin irritation (human skin; content 0.1 wt %): I (Degree of irritation 0-0.1: Grade I (unstimulated)); Test result (number of subject) (+) (human skin; content 0.5 wt %): 0; Test result (number of subject) (++) (human skin; content 0.5 wt %): 0; Test result (number of subject) (±) (human skin; content 0.5 wt %): 0; Test result (number of subject) (−) (human skin; content 0.5 wt %): 20; Degree of irritation (human skin; content 0.5 wt %): 0; Grade for skin irritation (human skin; content 0.5 wt %): I (Degree of irritation 0-0.1: Grade I (unstimulated)); Test result (number of subject) (+) (human skin; content 1.0 wt %): 0; Test result (number of subject) (++) (human skin; content 1.0 wt %): 0; Test result (number of subject) (±) (human skin; content 1.0 wt %): 2; Test result (number of subject) (−) (human skin; content 1.0 wt %): 18; Degree of irritation (human skin; content 1.0 wt %): 0.10; Grade for skin irritation (human skin; content 1.0 wt %): I (Degree of irritation 0-0.1: Grade I (unstimulated)); Formaldehyde GC Area, 30 min [4]: 0.174 mAU*min; Formaldehyde GC Area, 180 min [4]: 0 mAU*min; Formaldehyde GC Area, Initial [4]: 0.305 mAU*min; Total amount (Cu, Zn, Mn, Ni, Cd) [5]: ≤5 ppm
O=C(O)c1ccc(N2CCCN(c3ccc(C(=O)O)o3)CCN(c3ccc(C(=O)O)o3)CCCN(c3ccc(C(=O)O)o3)CC2)o1 [Embodiment 12, 5,5′,5″,5′″-(1,4,8,11-tetraazacyclotetradecane-1,4,8,11-tetrayl)tetrakis(furan-2-carboxylic Acid)] | 41 | 164 | 43 | 172 | 46 | 184 | 61 | 149 | 67 | 163 | 72 | 176 | 77 | 157 | 84 | 171 | 89 | 182 | 0 | 0 | Test result (number of subject) (±) (human skin; content 0.1 wt %): 0; Test result (number of subject) (−) (human skin; content 0.1 wt %): 20; Degree of irritation (human skin; content 0.1 wt %): 0; Grade for skin irritation (human skin; content 0.1 wt %): I (Degree of irritation 0-0.1: Grade I (unstimulated)); Test result (number of subject) (+) (human skin; content 0.5 wt %): 0; Test result (number of subject) (++) (human skin; content 0.5 wt %): 0; Test result (number of subject) (±) (human skin; content 0.5 wt %): 0; Test result (number of subject) (−) (human skin; content 0.5 wt %): 20; Degree of irritation (human skin; content 0.5 wt %): 0; Grade for skin irritation (human skin; content 0.5 wt %): I (Degree of irritation 0-0.1: Grade I (unstimulated)); Test result (number of subject) (+) (human skin; content 1.0 wt %): 0; Test result (number of subject) (++) (human skin; content 1.0 wt %): 0; Test result (number of subject) (±) (human skin; content 1.0 wt %): 1; Test result (number of subject) (−) (human skin; content 1.0 wt %): 19; Degree of irritation (human skin; content 1.0 wt %): 0.05; Grade for skin irritation (human skin; content 1.0 wt %): I (Degree of irritation 0-0.1: Grade I (unstimulated)); Formaldehyde GC Area, 30 min [4]: 0.170 mAU*min; Formaldehyde GC Area, 180 min [4]: 0 mAU*min; Formaldehyde GC Area, Initial [4]: 0.305 mAU*min; Total amount (Cu, Zn, Mn, Ni, Cd) [5]: ≤5 ppm
NCCNCCNCCN [Trientine, Triethylenetetramine, reference compound] | 49 | 196 | 52 | 208 | 59 | 236 | 68 | 166 | 75 | 183 | 79 | 193 | 102 | 208 | 115 | 235 | 131 | 267 | 0 | 0 | Test result (number of subject) (±) (human skin; content 0.1 wt %): 0; Test result (number of subject) (−) (human skin; content 0.1 wt %): 20; Degree of irritation (human skin; content 0.1 wt %): 0; Grade for skin irritation (human skin; content 0.1 wt %): I (Degree of irritation 0-0.1: Grade I (unstimulated)); Test result (number of subject) (+) (human skin; content 0.5 wt %): 0; Test result (number of subject) (++) (human skin; content 0.5 wt %): 0; Test result (number of subject) (±) (human skin; content 0.5 wt %): 1; Test result (number of subject) (−) (human skin; content 0.5 wt %): 19; Degree of irritation (human skin; content 0.5 wt %): 0.05; Grade for skin irritation (human skin; content 0.5 wt %): I (Degree of irritation 0-0.1: Grade I (unstimulated)); Test result (number of subject) (+) (human skin; content 1.0 wt %): 0; Test result (number of subject) (++) (human skin; content 1.0 wt %): 0; Test result (number of subject) (±) (human skin; content 1.0 wt %): 3; Test result (number of subject) (−) (human skin; content 1.0 wt %): 17; Degree of irritation (human skin; content 1.0 wt %): 0.15; Grade for skin irritation (human skin; content 1.0 wt %): II (Degree of irritation 0.11-0.3: Grade II (weakly stimulated)); Formaldehyde GC Area, 30 min [4]: 0.168 mAU*min; Formaldehyde GC Area, 180 min [4]: 0 mAU*min; Formaldehyde GC Area, Initial [4]: 0.305 mAU*min; Total amount (Cu, Zn, Mn, Ni, Cd) [5]: ≤5 (red) ppm

Reference: patent US20210207064A1, “COMPOUND FOR RESTORING CONTAMINATED SOIL OR CONTAMINATED WATER” (FNG RESEARCH CO., LTD., priority 2018, published 2021)
